Assay results reported in patent publication US20240124389A1, “COMPOUND OR SALT THEREOF, LIPID PARTICLES, AND PHARMACEUTICAL COMPOSITION” (FUJIFILM Corporation, priority 2021, published 2024).

Key:
[1] = system: human EPO; experiment: Measurement of EPO enzyme activity (EPO protein in blood plasma of mice after intravenous administration of EPO mRNA lipid particles); assay type: in vivo; settings: C57BL/6J mice, tail-vein i.v., mRNA 0.1 mg/kg, plasma 20 to 24 hours; aminolipid 50 / DOPE 10 / cholesterol 38.5 / DMG-PEG2000 1.5 mol %; lipid/nucleic acid 64 wt/wt
Outline: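 C57BL/6J mice received EPO mRNA (5moU) in lipid particles (ionizable lipid, DSPC/DOPE/DOPC, cholesterol, DMG-PEG2000) by tail-vein injection at 0.1 mg/kg mRNA. Plasma taken 20–24 h later; human EPO measured by ELISA and expressed relative to a comparative formulation set as 1.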

[2] = Particle size of EPO mRNA-encapsulating lipid particles; assay type: physicochemical; settings: aminolipid 50 / DOPE 10 / cholesterol 38.5 / DMG-PEG2000 1.5 mol %, lipid/nucleic acid 64 wt/wt
Outline: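 Lipid particles made from ethanol lipid phase (20 mmol/L total lipid, with DSPC, DOPE or DOPC, cholesterol, DMG-PEG2000) and EPO mRNA in pH 4 citrate buffer (lipid:mRNA about 16:1 to 64:1 w/w), mixed 3:1 aqueous:oil, then dialyzed against 10% sucrose. Size measured after 10-fold PBS dilution by light-scattering analyzer.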

[3] = system: EPO mRNA; experiment: mRNA encapsulation rate of EPO mRNA-encapsulating lipid particles; assay type: physicochemical; settings: aminolipid 50 / DOPE 10 / cholesterol 38.5 / DMG-PEG2000 1.5 mol %, lipid/nucleic acid 64 wt/wt
Outline: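 Lipid particles made by mixing lipids in ethanol (20 mmol/L total) with EPO mRNA in 50 mmol/L citrate pH 4 (lipid:mRNA weight ratio about 16:1–64:1), then dialysed against 10% sucrose. Total mRNA measured after ethanol precipitation; outer-phase mRNA by RiboGreen fluorescence (ex 485/em 535 nm). Encapsulation (%) = (total − outer)/total × 100.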

[4] = system: FLuc mRNA; experiment: mRNA encapsulation rate of FLuc mRNA-encapsulating lipid particles; assay type: physicochemical
Protocol: (§1) The compounds described in Table 2, the neutral lipid, cholesterol (product name: Cholesterol HP; NTPPON FINE CHEMICAL CO., LTD.), and 1,2-dimyristoyl-rac-glycero-3-(methylpolyoxyethylene 2000) (hereinafter, called DMG-PEG2000) were dissolved in ethanol at a molar ratio in Table 2 such that the total lipid concentration became 20 mmol/L, thereby obtaining an oil phase.
(§2) As the neutral lipid, 1,2-distearoyl-sn-glycero-3-phosphocholine (product name: COATSOME® MC-8080; NOF corporation) was used in a case of Comparative Example 1, and L-α-dioleoylphosphatidylethanolamine (product name: COATSOME® MC-8181; NOF corporation) was used in a case other than Comparative Example 1.
(§3) FLuc mRNA (product name: CleanCap FLuc mRNA (5 moU); TriLink) was diluted with 50 mmol/L citrate buffer having a pH 4 such that the weight ratio of total lipid concentration to mRNA concentration is about 19:1 to 64:1, obtaining a water phase. Then, the water phase and the oil phase were mixed together using NanoAssemblr (Precision NanoSystems) such that the volume ratio of water phase:oil phase was 3:1, and the mixed solution was 1.5-fold diluted with phosphate buffered saline (PBS), thereby obtaining a dispersion liquid of mRNA lipid particles. The dispersion liquid was dialyzed with a 10% aqueous sucrose solution using a dialysis cassette (Slide-A-Lyzer G2, MWCO: 10 kD, Thermo Fisher Scientific) to remove ethanol, thereby obtaining FLuc mRNA-encapsulating lipid particles.
15 to 30 μL of a 3 mol/L aqueous sodium acetate solution and 4.5 to 9 μL of glycogen were added to 30 to 60 μL of the lipid particles retaining mRNA, and 0.75 to 1.5 mL of ethanol was added thereto, so that only the nucleic acids were precipitated while the lipid was dissolved. Then, the supernatant was removed by centrifugation. The precipitates were air-dried for 15 minutes or longer, then water was added thereto to redissolve the precipitates, and the concentration thereof was measured using Nanodrop NF1000 (Thermo Fisher Scientific), thereby quantifying the total mRNA concentration.
The mRNA concentration was quantified using a Quant-iT RiboGreen RNA Assay Kit (Thermo Fisher Scientific) according to the protocol. First, a 20×TE buffer included in the above-described kit was diluted with water, thereby obtaining a 1×TE buffer. TE represents Tris/EDTA (ethylenediaminetetraacetic acid). In order to quantify only mRNA in the outer water phase, the dispersion liquid of lipid particles retaining mRNA was 10,000-fold diluted with the 1×TE buffer. 100 μL of the 10,000-fold diluted dispersion liquid of lipid particles was put into a 96-well plate, then 100 μL of a RiboGreen reagent (reagent included in the Quanti-iT Ribogreen RNA Assay Kit described above) 2,000-fold diluted with the 1×TE buffer was added to a sample, and fluorescence (excitation wavelength: 485 nm, fluorescence wavelength: 535 nm) was measured using a plate reader Infinite F200 (TECAN), thereby quantifying the mRNA concentration in the outer water phase.
By using the quantification results of the total mRNA concentration and the mRNA concentration in the outer water phase that were obtained through the above steps, the mRNA encapsulation rate of the mRNA lipid particles was calculated according to the following Equation.
mRNA encapsulation rate (%)=(total mRNA concentration-mRNA concentration in outer water phase)/total mRNA concentration×100

[5] = Particle size of FLuc mRNA-encapsulating lipid particles; assay type: physicochemical
Protocol: as §1, §2, §3
The particle size of the mRNA-encapsulating lipid particles was measured by 10-fold diluting the dispersion liquid of lipid particle with phosphate buffered saline (PBS) using Zeta-potential & Particle size Analyzer ELS-Z2 (Otsuka Electronics Co., Ltd.).

[6] = aminolipid 40 / DOPE 10 / cholesterol 48.5 / DMG-PEG2000 1.5 mol %, lipid/nucleic acid 64 wt/wt
[7] = aminolipid 45 / DOPE 10 / cholesterol 43.5 / DMG-PEG2000 1.5 mol %, lipid/nucleic acid 32 wt/wt
[8] = aminolipid 50 / DOPE 10 / cholesterol 38.5 / DMG-PEG2000 1.5 mol %, lipid/nucleic acid 64 wt/wt

SMILES	Particle size [2] [nm]	Nucleic acid encapsulation rate [3] [%]	Nucleic acid encapsulation rate [4, 6] [%]	Nucleic acid encapsulation rate [4, 7] [%]	Nucleic acid encapsulation rate [4, 8] [%]	Particle size [5, 6] [nm]	Particle size [5, 7] [nm]	Particle size [5, 8] [nm]	Relative amount of EPO protein (with respect to Comparative Example 1) [1]
CCCCCCCOC(=O)CCCC(CCCC(=O)OCCCCCCC)OC(=O)OCCN(CCOC(=O)OC(CCCC(=O)OCCCCCC)CCCC(=O)OCCCCCC)CCN(CC)CC [Example 37, 1-Heptyl 21-hexyl 11-(2-(diethylamino)ethyl)-5-(4-(heptyloxy)-4-oxobutyl)-17-(4-(hexyloxy)-4-oxobutyl)-7,15-d ioxo-6,8,14,16-tetraoxa-11-azahenicosanedioate]	136.1	99.0							5.18
CCCCCCCOC(=O)CCCC(CCCC(=O)OCCCCCCC)OC(=O)OCCN(CCOC(=O)OC(CCCC(=O)OCCCCCCC)CCCC(=O)OCCCCCCC)CCN(CC)CC [Example 29, diheptyl 11-(2-(diethylamino)ethyl)-5,17-bis(4-(heptyloxy)-4-oxobutyl)-7,15-dioxo-6,8,14,16-tetraoxa-11-azahenicosanedioate]	108.7	97.1	100.0	95.0	100.0	104.8	129	95.1	9.90
CCCCCCC(CCCC(=O)OCC(CCCCC)CCCCC)OC(=O)OCCN(CCCN(CC)CC)CCOC(=O)OC(CCCCCC)CCCC(=O)OCC(CCCCC)CCCCC (stereo not shown) [Example 13, Bis(2-pentylheptyl) 11-(3-(diethylamino)propyl)-5,17-dihexyl-7,15-dioxo-6,8,14,16-tetraoxa-11-azahenicosanedio ate]	79.5	98.5		99.1			83.4		5.09

More lines, main results first:

Particle size [2] [nm]	Nucleic acid encapsulation rate [3] [%]	Nucleic acid encapsulation rate [4, 6] [%]	Nucleic acid encapsulation rate [4, 7] [%]	Nucleic acid encapsulation rate [4, 8] [%]	Particle size [5, 6] [nm]	Particle size [5, 7] [nm]	Particle size [5, 8] [nm]	SMILES	Relative amount of EPO protein (with respect to Comparative Example 1) [1]
109.4	99.9		98.4			100.9		CCCCCC(CCCCC)COC(=O)CCCC(CCC)OC(=O)OCCN(CCOC(=O)OC(CCC)CCCC(=O)OCC(CCCCC)CCCCC)CCN(CC)CC (stereo not shown) [Example 21, Bis(2-pentylheptyl) 11-(2-(diethylamino)ethyl)-7,15-dioxo-5,17-dipropyl-6,8,14,16-tetraoxa-11-azahenicosanedioate]	4.66
81.3	98.0							CCCCCCC(CCCC)COC(=O)CCCC(CCCCCC)OC(=O)OCCN(CCOC(=O)OC(CCCCCC)CCCC(=O)OCC(CCCC)CCCCCC)CCN(CC)CC (stereo not shown) [Example 8, Bis(2-butyloctyl) 11-(2-(diethylamino)ethyl)-5,17-dihexyl-7,15-dioxo-6,8,14,16-tetraoxa-11-azahenicosanedioate]	2.27
